In ChEMBL document CHEMBL3596165, “Synthesis, structure elucidation and identification of antiproliferative activities of a novel class of thiophene bioisosteres bearing the privileged 7,8-dihydroimidazo[2,1-c][1,2,4]triazin-4(6H)-one scaffold” (Bioorg Med Chem, 2015):

What was measured:
[1] = test system: Vero; experiment: Antiproliferative activity against African green monkey Vero cells at 50 ug/ml after 24 hrs by BrdUrd incorporation assay; assay type: cell-based; details: chlorocebus sabaeus
[2] = Antiproliferative activity against African green monkey Vero cells at 50 ug/ml after 48 hrs by BrdUrd incorporation assay; assay type: cell-based; details: chlorocebus sabaeus, read-out: GI
[3] = Antiproliferative activity against African green monkey Vero cells at 50 ug/ml after 72 hrs by BrdUrd incorporation assay; assay type: cell-based; details: chlorocebus sabaeus, read-out: GI
[4] = test system: A549; experiment: Antiproliferative activity against human A549 cells at 50 ug/ml after 24 hrs by BrdUrd incorporation assay; assay type: functional; details: A549, 24 h, read-out: GI
[5] = test system: A549; experiment: Antiproliferative activity against human A549 cells at 50 ug/ml after 48 hrs by BrdUrd incorporation assay; assay type: functional; details: A549, 48 h, read-out: GI
[6] = test system: A549; experiment: Antiproliferative activity against human A549 cells at 50 ug/ml after 72 hrs by BrdUrd incorporation assay; assay type: functional; details: A549, 72 h, read-out: GI
[7] = test system: HeLa; experiment: Antiproliferative activity against human HeLa cells at 50 ug/ml after 24 hrs by BrdUrd incorporation assay; assay type: functional; details: read-out: GI
[8] = test system: HeLa; experiment: Antiproliferative activity against human HeLa cells at 50 ug/ml after 48 hrs by BrdUrd incorporation assay; assay type: functional; details: read-out: GI
[9] = test system: HeLa; experiment: Antiproliferative activity against human HeLa cells at 50 ug/ml after 72 hrs by BrdUrd incorporation assay; assay type: functional; details: read-out: GI
[10] = test system: T47D; experiment: Antiproliferative activity against human T47D cells at 50 ug/ml after 24 hrs by BrdUrd incorporation assay; assay type: functional; details: read-out: GI
[11] = test system: T47D; experiment: Antiproliferative activity against human T47D cells at 50 ug/ml after 48 hrs by BrdUrd incorporation assay; assay type: functional; details: read-out: GI
[12] = test system: T47D; experiment: Antiproliferative activity against human T47D cells at 50 ug/ml after 72 hrs by BrdUrd incorporation assay; assay type: functional; details: read-out: GI
[13] = test system: TOV112D; experiment: Antiproliferative activity against human TOV112D cells at 50 ug/ml after 24 hrs by BrdUrd incorporation assay; assay type: functional; details: read-out: GI
[14] = test system: TOV112D; experiment: Antiproliferative activity against human TOV112D cells at 50 ug/ml after 48 hrs by BrdUrd incorporation assay; assay type: functional; details: read-out: GI
[15] = test system: TOV112D; experiment: Antiproliferative activity against human TOV112D cells at 50 ug/ml after 72 hrs by BrdUrd incorporation assay; assay type: functional; details: read-out: GI
[16] = test system: Vero; experiment: Antiproliferative activity against African green monkey Vero cells after 24 hrs by BrdUrd incorporation assay; assay type: cell-based; details: chlorocebus sabaeus
[17] = test system: Vero; experiment: Antiproliferative activity against African green monkey Vero cells after 48 hrs by BrdUrd incorporation assay; assay type: cell-based; details: Chlorocebus sabaeus
[18] = test system: Vero; experiment: Antiproliferative activity against African green monkey Vero cells after 72 hrs by BrdUrd incorporation assay; assay type: cell-based; details: Chlorocebus sabaeus
[19] = test system: A549; experiment: Antiproliferative activity against human A549 cells after 24 hrs by BrdUrd incorporation assay; assay type: functional, cell-based; details: A549, 24 h
[20] = test system: A549; experiment: Antiproliferative activity against human A549 cells after 48 hrs by BrdUrd incorporation assay; assay type: functional, cell-based; details: A549, 48 h
[21] = test system: A549; experiment: Antiproliferative activity against human A549 cells after 72 hrs by BrdUrd incorporation assay; assay type: functional, cell-based; details: A549, 72 h
[22] = test system: HeLa; experiment: Antiproliferative activity against human HeLa cells after 24 hrs by BrdUrd incorporation assay; assay type: functional, cell-based
[23] = test system: HeLa; experiment: Antiproliferative activity against human HeLa cells after 48 hrs by BrdUrd incorporation assay; assay type: functional, cell-based
[24] = test system: HeLa; experiment: Antiproliferative activity against human HeLa cells after 72 hrs by BrdUrd incorporation assay; assay type: functional, cell-based
[25] = test system: T47D; experiment: Antiproliferative activity against human T47D cells after 24 hrs by BrdUrd incorporation assay; assay type: functional, cell-based
[26] = test system: T47D; experiment: Antiproliferative activity against human T47D cells after 48 hrs by BrdUrd incorporation assay; assay type: functional, cell-based
[27] = test system: T47D; experiment: Antiproliferative activity against human T47D cells after 72 hrs by BrdUrd incorporation assay; assay type: functional, cell-based
[28] = test system: TOV112D; experiment: Antiproliferative activity against human TOV112D cells after 24 hrs by BrdUrd incorporation assay; assay type: functional, cell-based
[29] = test system: TOV112D; experiment: Antiproliferative activity against human TOV112D cells after 48 hrs by BrdUrd incorporation assay; assay type: functional, cell-based
[30] = test system: TOV112D; experiment: Antiproliferative activity against human TOV112D cells after 72 hrs by BrdUrd incorporation assay; assay type: functional, cell-based

In the case of `COc1ccccc1N1CCn2c1nnc(-c1cccs1)c2=O`, the “growth inhibition (GI)” value [1] is reported as 50%, the inhibition at 48 h, 50 ug/ml [2] is reported as 75% and the inhibition at 72 h, 50 ug/ml [3] is reported as 90%. For the same molecule, the inhibition of growth at 50 µg/mL [4] was 70%, the inhibition of growth at 50 µg/mL [5] was 80% and the inhibition of growth at 50 µg/mL [6] was 90%. For the same molecule, the inhibition of growth at 50 µg/mL [7] was 50%, the inhibition of growth at 50 µg/mL [8] was 60% and the inhibition of growth at 50 µg/mL [9] was 80%. The inhibition of growth at 50 µg/mL [10] was 80%, the inhibition of growth at 50 µg/mL [11] was 90% and the inhibition of growth at 50 µg/mL [12] was 95%. It also gave an inhibition of growth at 50 µg/mL [13] of 75%, an inhibition of growth at 50 µg/mL [14] of 80% and an inhibition of growth at 50 µg/mL [15] of 90%. The IC50 [16] was 150 µM, the IC50 [17] was 100 µM and the IC50 [18] was 90 µM. It also gave an IC50 [19] of 110 µM, an IC50 [20] of 100 µM and an IC50 [21] of 80 µM. For the same molecule, the IC50 [22] was 150 µM, the IC50 [23] was 130 µM and the IC50 [24] was 100 µM. It also gave an IC50 [25] of 100 µM, an IC50 [26] of 90 µM and an IC50 [27] of 80 µM. For the same molecule, the IC50 [28] was 100 µM, the IC50 [29] was 100 µM and the IC50 [30] was 80 µM.

For `O=c1c(-c2cccs2)nnc2n1CCN2c1ccc(Cl)cc1`, the “growth inhibition (GI)” value [1] was 25%, the inhibition at 48 h, 50 ug/ml [2] was 60% and the inhibition at 72 h, 50 ug/ml [3] was 90%. It also gave an inhibition of growth at 50 µg/mL [4] of 80%, an inhibition of growth at 50 µg/mL [5] of 90% and an inhibition of growth at 50 µg/mL [6] of 100%. The inhibition of growth at 50 µg/mL [7] was 50%, the inhibition of growth at 50 µg/mL [8] was 90% and the inhibition of growth at 50 µg/mL [9] was 100%. The inhibition of growth at 50 µg/mL [10] was 90%, the inhibition of growth at 50 µg/mL [11] was 100% and the inhibition of growth at 50 µg/mL [12] was 100%. The inhibition of growth at 50 µg/mL [13] was 75%, the inhibition of growth at 50 µg/mL [14] was 90% and the inhibition of growth at 50 µg/mL [15] was 100%. The IC50 [16] was > 150 µM, the IC50 [17] was 130 µM and the IC50 [18] was 80 µM. The IC50 [19] was 90 µM, the IC50 [20] was 80 µM and the IC50 [21] was 80 µM. The IC50 [22] was 150 µM, the IC50 [23] was 80 µM and the IC50 [24] was 80 µM. The IC50 [25] was 80 µM, the IC50 [26] was 80 µM and the IC50 [27] was 80 µM. It also gave an IC50 [28] of 100 µM, an IC50 [29] of 80 µM and an IC50 [30] of 80 µM.

In the case of `Cc1cccc(N2CCn3c2nnc(-c2cccs2)c3=O)c1C`, the “growth inhibition (GI)” value [1] is reported as 25%, the inhibition at 48 h, 50 ug/ml [2] is reported as 55% and the inhibition at 72 h, 50 ug/ml [3] is reported as 90%. For the same molecule, the inhibition of growth at 50 µg/mL [4] was 45%, the inhibition of growth at 50 µg/mL [5] was 60% and the inhibition of growth at 50 µg/mL [6] was 90%. The inhibition of growth at 50 µg/mL [7] was 50%, the inhibition of growth at 50 µg/mL [8] was 65% and the inhibition of growth at 50 µg/mL [9] was 75%. The inhibition of growth at 50 µg/mL [10] was 90%, the inhibition of growth at 50 µg/mL [11] was 100% and the inhibition of growth at 50 µg/mL [12] was 100%. For the same molecule, the inhibition of growth at 50 µg/mL [13] was 40%, the inhibition of growth at 50 µg/mL [14] was 75% and the inhibition of growth at 50 µg/mL [15] was 95%. For the same molecule, the IC50 [16] was > 150 µM, the IC50 [17] was 140 µM and the IC50 [18] was 90 µM. The IC50 [19] was > 150 µM, the IC50 [20] was 130 µM and the IC50 [21] was 90 µM. For the same molecule, the IC50 [22] was 150 µM, the IC50 [23] was 120 µM and the IC50 [24] was 100 µM. It also gave an IC50 [25] of 90 µM, an IC50 [26] of 80 µM and an IC50 [27] of 80 µM. For the same molecule, the IC50 [28] was > 150 µM, the IC50 [29] was 100 µM and the IC50 [30] was 80 µM.
